Assay results from BindingDB's records for doi:10.1021/jm5003759 (University of Copenhagen, 2014).

Target: T1, 5-hydroxytryptamine receptor 2C (Homo sapiens, UniProt P28335)
T1 sequence (P28335 whole entry): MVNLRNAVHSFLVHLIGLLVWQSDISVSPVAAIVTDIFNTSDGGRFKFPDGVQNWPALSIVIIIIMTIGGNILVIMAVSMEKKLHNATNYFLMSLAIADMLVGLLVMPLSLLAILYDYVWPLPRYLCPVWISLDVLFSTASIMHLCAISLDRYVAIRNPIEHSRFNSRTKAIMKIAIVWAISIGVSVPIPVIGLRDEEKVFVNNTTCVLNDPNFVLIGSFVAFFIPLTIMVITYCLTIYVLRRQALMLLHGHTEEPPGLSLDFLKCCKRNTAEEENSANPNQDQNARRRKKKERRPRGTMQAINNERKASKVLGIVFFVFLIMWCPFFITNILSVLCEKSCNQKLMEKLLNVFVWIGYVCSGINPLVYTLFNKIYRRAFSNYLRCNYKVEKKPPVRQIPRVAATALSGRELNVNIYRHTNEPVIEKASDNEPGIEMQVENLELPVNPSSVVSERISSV
Test: Displacement of [3H]5-HT from human recombinant 5-HT2C receptor expressed in mouse 3T3 cells

SMILES: CNc1cc(NS(=O)(=O)c2ccc(N)cc2)cc(NC)n1 [Ro-63-0563]
- Ki: 2040 nM
